Experimental data published in PubChem BioAssay (NCI).
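These data come from cells grown in 96-well plates and exposed to compound for 48 hours at five concentrations. GI50: concentration for 50% inhibition of growth. Definition used: TGI = concentration required for complete inhibition of growth.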

How the values were obtained:
Experiment in all cases: inhibition of tumour cell growth, NCI panel, 48 h
SNB-19 CNS = tested on: SNB-19 CNS
HOP-92 NSCLC = tested on: HOP-92 NSCLC
MALME-3M melanoma = tested on: MALME-3M melanoma
EKVX NSCLC = tested on: EKVX NSCLC
CAKI-1 renal = tested on: CAKI-1 renal
SF-539 CNS = tested on: SF-539 CNS
786-0 renal = tested on: 786-0 renal
T-47D breast = tested on: T-47D breast
NCI/ADR-RES ovarian = tested on: NCI/ADR-RES ovarian
MOLT-4 leukemia = tested on: MOLT-4 leukemia

Structure (SMILES)	TGI (SNB-19 CNS)	TGI (HOP-92 NSCLC)	TGI (MALME-3M melanoma)	TGI (EKVX NSCLC)	TGI (CAKI-1 renal)	TGI (SF-539 CNS)	TGI (786-0 renal)	TGI (T-47D breast)	TGI (NCI/ADR-RES ovarian)	GI50 (SNB-19 CNS)	GI50 (HOP-92 NSCLC)	GI50 (MALME-3M melanoma)	GI50 (CAKI-1 renal)	GI50 (SF-539 CNS)	GI50 (786-0 renal)	GI50 (MOLT-4 leukemia)	TGI (MOLT-4 leukemia)	GI50 (T-47D breast)	GI50 (NCI/ADR-RES ovarian)	GI50 (EKVX NSCLC)
CCc1ncnc2cc(OCC3CO3)c(OC)cc12 (stereo not drawn)	> 100 µM	26.7 µM	42 µM	> 100 µM	> 100 µM	25.2 µM	20.7 µM	> 100 µM	> 100 µM	–	–	–	–	–	–	–	–	–	–	–
C[C@]12CC[C@@H]3c4ccc(O)cc4CC[C@H]3[C@@H]1CC[C@@H]2NS(=O)(=O)c1ccc2ccccc2c1	> 100 µM	7.14 µM	8.06 µM	–	10.4 µM	6.1 µM	8.9 µM	16.3 µM	8 µM	4.17 µM	1830 nM	2.56 µM	3.16 µM	2.11 µM	2.96 µM	3.37 µM	> 100 µM	3.9 µM	2.61 µM	–
O=C1c2c(c3c4ccccc4[nH]c3c3[nH]c4ccccc4c23)C(=O)N1Cc1ccccc1	9.02 µM	5.65 µM	11.9 µM	23.7 µM	10.2 µM	6.26 µM	11.3 µM	–	–	–	–	–	–	–	–	–	7.51 µM	–	–	–
CN(C)CCNc1nc2ccccc2c2occc12	> 100 µM	> 100 µM	–	> 100 µM	> 100 µM	83.6 µM	> 100 µM	> 100 µM	> 100 µM	71.7 µM	54100 nM	–	52.7 µM	35.9 µM	62 µM	20.3 µM	> 100 µM	> 100 µM	51.8 µM	59.5 µM
Cc1ccc(C)c2c(N=Nc3ccccc3[N+](=O)[O-])c(O)[nH]c12	> 100 µM	> 100 µM	–	> 100 µM	> 100 µM	> 100 µM	> 100 µM	> 100 µM	–	–	–	–	–	–	–	–	> 100 µM	–	–	–
Cc1cc(NS(=O)(=O)c2ccc(Nc3c4ccccc4nc4c(C(=O)Nc5ccc(S(=O)(=O)N=C(N)N)cc5)ccc(Cl)c34)cc2)no1	> 100 µM	–	> 100 µM	> 100 µM	> 100 µM	41.7 µM	> 100 µM	–	–	–	–	–	–	–	–	–	67.3 µM	–	–	–
COc1cc2c(cc1OC)[C@@H]([C@H](O)c1ccccc1)NCC2	> 100 µM	> 100 µM	> 100 µM	> 100 µM	> 100 µM	> 100 µM	> 100 µM	–	–	–	–	–	–	–	–	–	> 100 µM	–	–	–
CCN(CC)CCC(=O)/C=C/c1ccc(C)cc1	37.5 µM	35.4 µM	34 µM	32.4 µM	3.28 µM	19.1 µM	24.7 µM	–	–	–	–	–	–	–	–	–	38.2 µM	–	–	–
Cc1cc(NS(=O)(=O)c2ccc(NC(=O)COC(=O)c3cccc4c(=O)c5ccccc5[nH]c34)cc2)no1	> 100 µM	> 100 µM	> 100 µM	> 100 µM	> 100 µM	> 100 µM	> 100 µM	–	–	–	–	–	–	–	–	–	> 100 µM	–	–	–
CC12CC(Sc3ccccc3N1)c1ccccc1O2 (stereo not drawn)	30 µM	35.2 µM	30.1 µM	33.4 µM	42.4 µM	32.5 µM	31.6 µM	–	–	–	–	–	–	–	–	–	44.6 µM	–	–	–
Cc1ccc2c(CC(=O)O)cc(=O)oc2c1	> 100 µM	> 100 µM	> 100 µM	> 100 µM	> 100 µM	> 100 µM	> 100 µM	–	–	–	–	–	–	–	–	–	> 100 µM	–	–	–
COC(=O)C(=O)C(CC(=O)Nc1cccc(C(F)(F)F)c1)C(=O)OC (stereo not drawn)	> 100 µM	> 100 µM	> 100 µM	> 100 µM	> 100 µM	> 100 µM	> 100 µM	–	–	–	–	–	–	–	–	–	> 100 µM	–	–	–
CCOC(=O)c1nc2cc(C(F)(F)F)ccc2[n+]([O-])c1C	> 100 µM	–	> 100 µM	> 100 µM	> 100 µM	> 100 µM	> 100 µM	–	> 100 µM	> 100 µM	–	> 100 µM	> 100 µM	> 100 µM	> 100 µM	> 100 µM	> 100 µM	–	> 100 µM	> 100 µM
COc1cc2ccc(CC(N)=O)cc2cc1OC	> 100 µM	> 100 µM	> 100 µM	> 100 µM	–	> 100 µM	> 100 µM	–	–	–	–	–	–	–	–	–	> 100 µM	–	–	–
CCOP(=O)(CC(=O)C1=C(O)C(CCCCNC(=O)OC(C)(C)C)N(Cc2ccccc2)C1=O)OCC (stereo not drawn)	–	–	> 100 µM	> 100 µM	> 100 µM	> 100 µM	> 100 µM	–	–	–	–	–	–	–	–	–	> 100 µM	–	–	–
CCN(Cc1cccc(F)c1F)c1ccc(CO)c(Cl)c1	> 58.6 µM	8.23 µM	34.2 µM	–	5.59 µM	30.2 µM	32.2 µM	0.414 µM	52.2 µM	17 µM	190 nM	16 µM	0.4 µM	15.5 µM	13.6 µM	19.8 µM	49.9 µM	0.07 µM	17.5 µM	–
O=C(COc1ccc(-c2nc3cc(Cl)c(Cl)cc3[nH]2)cc1)N=Nc1c(O)[nH]c2ccccc12	6.62 µM	5.22 µM	–	> 100 µM	> 100 µM	24.2 µM	8.5 µM	–	> 100 µM	1.78 µM	1590 nM	–	6.91 µM	2.65 µM	2.33 µM	3.57 µM	> 100 µM	–	> 100 µM	4.97 µM
COc1ccc(-c2nc(-c3nc4ccc(C(F)(F)F)cc4[nH]3)c3ccccn23)cc1	> 100 µM	> 100 µM	> 100 µM	–	> 100 µM	> 100 µM	> 100 µM	> 100 µM	> 100 µM	> 100 µM	> 100000 nM	> 100 µM	> 100 µM	> 100 µM	> 100 µM	2.81 µM	> 100 µM	5.33 µM	85.3 µM	–
Clc1ccc(C2=NOC3C4CCC(C4)C23)cc1 (stereo not drawn)	> 100 µM	> 100 µM	> 100 µM	> 100 µM	> 100 µM	> 100 µM	> 100 µM	–	–	–	–	–	–	–	–	–	> 100 µM	–	–	–
Brc1ccc(C2SCc3nc4ccccc4n32)cc1 (stereo not drawn)	9.02 µM	9.66 µM	30.2 µM	33.8 µM	43 µM	34.3 µM	26 µM	–	–	–	–	–	–	–	–	–	> 100 µM	–	–	–
